Active and inactive are the calls of the source. The calls are words filed in the database; no cut-off is given here.
Columns and labels:
NCI-H661 [1] = experiment: Antiproliferative activity against human NCI-H661 cells assessed as inhibition of cell viability after 3 days by XTT assay in presence of beta-glucuronidase; assay type: functional, cell-based; details: NCI-H661, 72 h
[2] = Stability of the compound in 0.02M phosphate buffer assessed as drug decomposition at 0.06 umol at pH 7 after 10 days by HPLC analysis; assay type: physicochemical; details: pH 7, 240 h
Serum = experiment: Stability of the compound in bovine serum assessed as drug degradation at 37 degC measured for 24 hrs; assay type: ADME, Bos taurus; details: cattle
Beta-glucuronidase = Beta-glucuronidase (Escherichia coli (strain K12), UniProt P05804); experiment: Prodrug activation in phosphate buffer assessed as Escherichia coli beta-glucuronidase-catalysed release of doxorubicin at 0.06 umol at pH 7 after 6 hrs by HPLC analysis; details: isolated protein, pH 7, 6 h
Sequence of Beta-glucuronidase (P05804 whole entry): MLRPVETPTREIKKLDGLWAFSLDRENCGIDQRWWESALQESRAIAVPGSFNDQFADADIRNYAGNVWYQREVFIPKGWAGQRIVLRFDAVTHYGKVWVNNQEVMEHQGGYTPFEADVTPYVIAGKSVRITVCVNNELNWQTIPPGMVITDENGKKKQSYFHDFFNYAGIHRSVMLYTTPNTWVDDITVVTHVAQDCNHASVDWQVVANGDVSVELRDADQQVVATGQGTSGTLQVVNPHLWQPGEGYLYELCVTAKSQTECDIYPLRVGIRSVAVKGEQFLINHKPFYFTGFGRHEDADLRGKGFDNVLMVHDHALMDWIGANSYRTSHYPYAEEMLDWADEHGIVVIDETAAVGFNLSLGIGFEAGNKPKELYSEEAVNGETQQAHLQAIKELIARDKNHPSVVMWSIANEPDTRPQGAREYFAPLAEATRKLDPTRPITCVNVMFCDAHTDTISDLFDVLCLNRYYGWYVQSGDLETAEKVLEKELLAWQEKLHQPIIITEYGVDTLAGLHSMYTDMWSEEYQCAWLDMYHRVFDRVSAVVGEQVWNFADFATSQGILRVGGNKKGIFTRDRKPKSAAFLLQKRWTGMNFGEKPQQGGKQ

NCI-H661 [3] = experiment: Antiproliferative activity against human NCI-H661 cells assessed as inhibition of cell viability at 1000 nM after 3 days by XTT assay; assay type: functional, cell-based
NCI-H661 [4] = experiment: Ratio of HMR1826 IC50 to compound IC50 for human NCI-H661 cells in presence of beta-glucuronidase; assay type: functional

SMILES | IC50 (NCI-H661 [1]) | Stability [2] | Stability (Serum) | Drug metabolism (Beta-glucuronidase) | inhibition (NCI-H661 [3]) | Ratio IC50 (NCI-H661 [4])
COc1cccc2c1C(=O)c1c(O)c3c(c(O)c1C2=O)C[C@@](O)(C(=O)CO)C[C@@H]3O[C@H]1C[C@H](N)[C@H](O)[C@H](C)O1 [DOXORUBICIN] | 0.25 µM |  |  |  |  | 
COc1cccc2c1C(=O)c1c(O)c3c(c(O)c1C2=O)C[C@@](O)(C(=O)CO)C[C@@H]3O[C@H]1C[C@H](NC(=O)OCc2ccc(O[C@@H]3O[C@H](C(=O)O)[C@@H](O)[C@H](O)[C@H]3O)c([N+](=O)[O-])c2)[C@H](O)[C@H](C)O1 | 0.28 µM |  |  |  |  | 
COc1cccc2c1C(=O)c1c(O)c3c(c(O)c1C2=O)C[C@@](O)(C(=O)CO)C[C@@H]3O[C@H]1C[C@H](NC(=O)OCc2ccc(NC(=O)OCc3ccc(O[C@@H]4O[C@H](C(=O)O)[C@@H](O)[C@H](O)[C@H]4O)c([N+](=O)[O-])c3)c(COC(=O)N[C@H]3C[C@H](O[C@H]4C[C@](O)(C(=O)CO)Cc5c(O)c6c(c(O)c54)C(=O)c4c(OC)cccc4C6=O)O[C@@H](C)[C@H]3O)c2)[C@H](O)[C@H](C)O1 | 0.11 µM | Stable | Stable | Active | inactive | 2

Reference: ChEMBL document CHEMBL3217519, “A self-immolative dendritic glucuronide prodrug of doxorubicin” (Medchemcomm, 2012)
